This is an account of results in patent US11214803B2, “Modulators of YAP1 expression” (Ionis Pharmaceuticals, Inc., priority 2019, dated 2022).

The subject of series [1] is Yap1 mRNA. The experiment in a line: Dose-dependent inhibition of human Yap1 in A-431 cells (Example 7, 10,000 cells per well, RTS36584). It is filed as cell-based. Conditions: free uptake; for Yap1 mRNA, % UTC: A-431 cells 10,000 cells per well, 48 hours. In short, it runs like this: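 Yap1 mRNA was expressed as percent of untreated control after normalization to total RNA (RIBOGREEN), and IC50 was derived by log/linear linear regression. The read-out used primer-probe set RTS36584 roughly 48 hours after free-uptake dosing of oligonucleotides into A-431 cells (10,000 cells/well).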

The nature of series [2]: Tolerability in Balb/c mice, plasma chemistry markers (Example 13). The series is classed as in vivo. The note with it: male Balb/c mice, 50 mg/kg s.c. twice a week for four weeks (8 treatments), day 25. The protocol:
Balb/c mice were treated with modified oligonucleotides selected from studies described above and evaluated for changes in the levels of various plasma chemistry markers.
(§1) Groups of male Balb/c mice at 4-6 weeks of age (obtained from Taconic) were injected subcutaneously twice a week for four weeks (for a total of 8 treatments) with 50 mg/kg of modified oligonucleotides. One group of male Balb/c mice was injected with PBS. Mice were euthanized on day 25 post start of treatment (24 hours following the final administration).

Series [3] in a line: Tolerability in Balb/c mice, body and organ weights (Example 13). The series is classed as in vivo. Conditions: male Balb/c mice, 50 mg/kg s.c. twice a week for four weeks (8 treatments), end of study (day 25). The protocol:
as §1
Body weights of Balb/c mice were measured at the end of the study, and the average body weight for each group is presented in the table below. Modified oligonucleotides that caused any changes in organ weights outside the expected range for modified oligonucleotides were excluded from further studies.

For series [4], the system named is Yap1 mRNA. The experiment in a line: Dose-dependent inhibition of human Yap1 in A-431 cells (Example 8, 10,000 cells per well, RTS4814). It is filed as cell-based. The note with it: free uptake, approximately 48 hours, RTS4814; for Yap1 mRNA, % UTC: A-431 cells, 10,000 cells per well; for IC50: A-431 cells, linear regression on log/linear plot. In outline:
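Yap1 mRNA, normalized to RIBOGREEN total RNA and expressed as % untreated control, was read with RTS4814 about 48 h after free-uptake oligonucleotide treatment of A-431 cells at 10,000 cells/well. IC50 derived by linear regression of log/linear data.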

A short description of series [5]: Tolerability in CD-1 mice, plasma chemistry markers (Example 18). It is filed as in vivo. The note with it: male CD-1 mice, 50 mg/kg s.c. twice a week (total of 9 treatments), day 34. The protocol:
(§2) CD-1 mice were treated with modified oligonucleotides selected from studies described above and evaluated for changes in the levels of various plasma chemistry markers.
(§3) Groups of four male CD-1 mice at 5-6 weeks of age (obtained from Charles River) were injected subcutaneously twice a week for four weeks (for a total of 9 treatments) with 50 mg/kg of modified oligonucleotides. One group of male CD-1 mice was injected with PBS. Mice were euthanized on day 34 post start of treatment (24 hours following the final administration).

Series [6] is described as follows: Tolerability in CD-1 mice, body and organ weights (Example 18). It is filed as in vivo. The note with it: male CD-1 mice, 50 mg/kg s.c. twice a week (total of 9 treatments), end of study (day 34). On the procedure: as §3
(§4) Body weights of CD-1 mice were measured at the end of the study, and the average body weight for each group is presented in the table below. Modified oligonucleotides that caused any changes in organ weights outside the expected range for modified oligonucleotides were excluded from further studies.

Series [7] in a line: Tolerability in Sprague-Dawley rats, plasma chemistry markers (Example 20). Conditions: male Sprague-Dawley rats, 50 mg/kg s.c. weekly for 6 weeks (7 doses), 48 hours after last dose. The series is classed as in vivo. The protocol:
Sprague-Dawley rats are a multipurpose model used for safety and efficacy evaluations. The rats were treated with Ionis modified oligonucleotides from the studies described in the Examples above and evaluated for changes in the levels of various plasma chemistry markers.

The nature of series [8]: Tolerability in Sprague-Dawley rats, body and organ weights (Example 20). Conditions: male Sprague-Dawley rats, 50 mg/kg s.c. weekly for 6 weeks (7 doses); for Kidney weight / Liver weight / Spleen weight: end of study; for body weight: terminal, prior to necropsy. It is filed as in vivo. The protocol:
Terminal body weight was measured prior to necropsy. Ionis oligonucleotides that caused any changes in organ weights outside the expected range for modified oligonucleotides were excluded from further studies.

Series [9] relates to Yap1 mRNA. The experiment in a line: Inhibition of human Yap1 mRNA in SNU449 hepatocellular carcinoma xenograft tumors (Example 26). The note with it: SNU449 xenografts in NSG mice, 50 mg/kg twice weekly for five days, relative to PBS treated animals. The series is classed as in vivo. On the procedure: A SNU449 hepatocellular carcinoma xenograft tumor model was used to evaluate activity of modified oligonucleotides targeted to human Yap1. Ten million SNU449 cells in 30% matrigel were implanted subcutaneously into the flanks of female NOD Cg-Prkdcscid ll2rgtm1Wjl/SzJ (NSG) mice (from Jackson Laboratory) at 4-6 weeks of age. When tumors reached an average volume of 100 mm^3, approximately two weeks post-implantation, groups of four mice each were administered at 50 mg/kg twice weekly with modified oligonucleotides for five days. Tumors were collected and tested for Yap1 mRNA knockdown by RT-qPCR. Yap1 mRNA levels were measured as previously described using the Human Yap1 primer-probe set RTS4814. Yap1 mRNA levels were normalized to actin-beta content, as measured by primer probe set RTS5002. Results are presented in the tables below as percent control of the amount of Yap1 mRNA relative to PBS treated animals (% control).

Series [10] in a line: Tolerability in Sprague-Dawley rats, kidney function, urine total protein to creatinine ratio (Example 20). The note with it: male Sprague-Dawley rats, 50 mg/kg subcutaneously weekly for 6 weeks (total 7 doses).
Method: Male Sprague-Dawley rats were maintained on a 12-hour light/dark cycle and fed ad libitum with Purina normal rat chow. Groups of 4 Sprague-Dawley rats each were weekly injected subcutaneously with 50 mg/kg of Ionis oligonucleotide for 6 weeks (total 7 doses). Forty-eight hours after the last dose, the rats were euthanized; and organs, urine and plasma were harvested for further analysis.
To evaluate the effect of Ionis oligonucleotides on kidney function, urinary levels of total protein and creatinine were measured using an automated clinical chemistry analyzer (Hitachi Olympus AU400c, Melville, N.Y.).
The test system of series [11] is Yap1 mRNA. The experiment in a line: Dose-dependent inhibition of human Yap1 in SNU-449 cells (Example 9, RTS36584). Conditions: free uptake; for % UTC (Yap1 mRNA): approximately 48 hours. It is filed as cell-based. In short, it runs like this: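 Read-out was Yap1 mRNA (primer-probe RTS36584) normalised to total RNA by RIBOGREEN, given as % of untreated cells, with IC50 fitted by linear regression of log/linear data. Oligonucleotides were dosed by free uptake to SNU-449 cells, 10,000/well, for ~48 h.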

Series [12] is described as follows: Tolerability in CD-1 mice, plasma chemistry markers (Example 17). The series is classed as in vivo. Conditions: male CD-1 mice, 50 mg/kg s.c. twice a week for four weeks (8 treatments), day 27. The protocol: as §2
(§5) Groups of four male CD-1 mice at 4-5 weeks of age (obtained from Charles River) were injected subcutaneously twice a week for four weeks (for a total of 8 treatments) with 50 mg/kg of modified oligonucleotides. One group of male CD-1 mice was injected with PBS. Mice were euthanized on day 27 post start of treatment (24 hrs following the final administration).

A short description of series [13]: Tolerability in CD-1 mice, body and organ weights (Example 17). Conditions: male CD-1 mice, 50 mg/kg s.c. twice a week for four weeks (8 treatments), end of study (day 27). It is filed as in vivo. On the procedure:
as §5, §4

Strand notation (5' to 3'): a small letter for the sugar, then the base; units joined by * are phosphorothioate-linked, units joined directly phosphodiester-linked; [ ] holds rarer units or linkages, { } end groups; capitals alone tell only the bases. k = constrained ethyl (cEt); [5mC] = 5-methylcytosine; d = 2'-deoxy (DNA)

Take “958371 (antisense kA*k[5mC]*k[5mC]*dA*dA*d[5mC]*dT*dA*dT*dT*dA*d[5mC]*dT*kT*k[5mC]*kA) [compound 958371]”: the “Yap1 mRNA, % UTC” value in the series with Yap1 mRNA [1] (Table 56, 15.6 nM) is given as 89 % UTC. Also, the “Yap1 mRNA, % UTC” value in the series with Yap1 mRNA [1] (Table 56, 62.5 nM) is recorded as 57 % UTC. Besides, the “Yap1 mRNA, % UTC” value in the series with Yap1 mRNA [1] (Table 56, 4000.00 nM) was 11 % UTC. Besides, the IC50 with Yap1 mRNA [1] (Table 56, A-431 cells 10,000 cells per well) came to 100 nM. In [2], this substance returned an ALT of 249 U/L, an AST of 199 U/L, a BUN of 30 mg/dL and a TBIL of 0.24 mg/dL. In [3], this substance returned a Kidney weight of 0.32 g, a Liver weight of 1.31 g, a Spleen weight of 0.15 g and a body weight of 23 g.

As for “1074755 (k[5mC]*kA*k[5mC]*dT*dT*dT*dT*dA*d[5mC]*dA*dT*dT*dA*kG*kG*kA; antisense) [compound 1074755]”, in the series with Yap1 mRNA [4] (31.3 nM), the “Yap1 mRNA, % UTC” value was found to be 28 % UTC. The “Yap1 mRNA, % UTC” value in the series on Yap1 mRNA [4] (125.0 nM) was determined as 9 % UTC. Moreover, the “Yap1 mRNA, % UTC” value with Yap1 mRNA [4] (500.0 nM) is listed as 5 % UTC. Also, the “Yap1 mRNA, % UTC” value with Yap1 mRNA [4] (2000.00 nM) is recorded as 3 % UTC. In addition, the IC50 with Yap1 mRNA [4] is under 20 nM. In addition, in series [5], the ALT is given as 88 U/L, the AST was 104 U/L, the BUN came to 22 mg/dL and the TBIL turned out to be 0.21 mg/dL. In series [6], the Kidney weight is reported as 0.61 g, the Liver weight came to 2.27 g, the Spleen weight is 0.19 g and the body weight turned out to be 39 g. In series [7], this substance had an ALB of 2.99 g/dL, an ALT of 57 U/L, an AST of 97 U/L and a BUN of 29 mg/dL. The substance also had a TBIL in series [7] of 0.12 mg/dL. Further, in series [8], the Kidney weight amounted to 3.3 g, the Liver weight is 16 g, the Spleen weight is reported as 2.1 g and the body weight was found to be 357 g. Also, the “Yap1 mRNA in tumors, % control” value in the series with Yap1 mRNA [9] was found to be 70 % control. Also, the “URINE P/C ratio (total protein to creatinine ratio)” value (from here on “URINE P/C ratio”) in series [10] was 5.

As for “1076481 (k[5mC]*kT*kA*dA*dG*dT*dA*dA*dG*dG*dT*dT*dT*k[5mC]*k[5mC]*k[5mC]) [compound 1076481]”, the “Yap1 mRNA, % UTC” value in the series with Yap1 mRNA [4] (31.3 nM) is on record as 21 % UTC; in the series with Yap1 mRNA [4] (125.0 nM), 4 % UTC; in the series with Yap1 mRNA [4] (500.0 nM) it was 2 % UTC; in the series with Yap1 mRNA [4] (2000.00 nM) it was 3 % UTC. Moreover, the IC50 was under 20 nM in the series on Yap1 mRNA [4] and 100 nM with Yap1 mRNA [11] (linear regression on a log/linear plot). Moreover, the “% UTC (Yap1 mRNA)” value with Yap1 mRNA [11] (31.3 nM) was 86 % UTC; with Yap1 mRNA [11] (125.0 nM) it was 40 % UTC; with Yap1 mRNA [11] (500.0 nM), 15 % UTC; in the series with Yap1 mRNA [11] (2000.00 nM), 3 % UTC. For the same substance, the results for the ALT in series [5] and in series [7] were 71 U/L and 50 U/L, respectively. Besides, the figures for the AST in series [5] and in [7] were 121 U/L and 91 U/L, respectively. Besides, the values for the BUN in series [5] and in [7] were 23 mg/dL and 49 mg/dL, respectively. In addition, the TBIL amounted to 0.23 mg/dL in series [5] and 0.13 mg/dL in series [7]. In addition, the Kidney weight was 0.57 g in [6] and 2.6 g in [8]. Further, the Liver weight in series [6] is recorded as 2.06 g; in series [8], 14 g. Moreover, the Spleen weight in [6] was 0.23 g; in series [8], 2.1 g. Also, the body weight came out at 39 g in [6] and 367 g in [8]. Besides, the ALB in series [7] worked out at 2.74 g/dL. Also, in series [10], the “URINE P/C ratio” value is recorded as 5.

With “1097224 (k[5mC]*kT*k[5mC]*dT*dT*dA*dT*dA*dT*dG*dG*dT*dT*kT*kT*kG; antisense) [compound 1097224]”, in [12], the ALT is reported as 39 U/L, the AST was found to be 78 U/L, the BUN is 21 mg/dL and the TBIL turned out to be 0.09 mg/dL. In series [13], this substance returned a Kidney weight of 0.54 g, a Liver weight of 1.93 g, a Spleen weight of 0.16 g and a body weight of 37 g. In [7], the ALB came to 1.61 g/dL, the ALT is 31 U/L, the AST is 51 U/L and the BUN turned out to be 86 mg/dL. The TBIL in [7] worked out at 0.07 mg/dL. In series [8], this substance had a Kidney weight of 4.5 g, a Liver weight of 13 g, a Spleen weight of 1.4 g and a body weight of 316 g. The “URINE P/C ratio” value in series [10] stood at 87.
